Where no end group is shown, it is not given here.
Legend:
[1] = test system: ICR mice, punch skin wound; assay: murine wound model, wound closure; assay type: in vivo; conditions: topical 10 μg per mouse daily for 10 consecutive days; Day 5 to Day 11; vs negative control (PBS)
Description: FIGS. 1 and 2 illustrate the effect of polypeptides IK34720 (SEQ ID NO: 3—RSKAKNPLYRRRRRRRRR) (FIG. 1) and the dextro-reverso sequence IK236770 (SEQ ID NO: 4—rrrrrrrrrylpnkaksr) (FIG. 2), on wound healing over 10 days in a murine wound model in accordance with the following protocol.
Three groups of 8 male ICR mice with a mean weight of 22 g (+2 g) were used in the present study. The animals were housed in individual cages during the study. Under isoflurane gas anaesthesia, the shoulder and back region of each animal was shaved and a sharp punch (ID 12 mm) was used to induce a wound by removing the skin, including panniculus carnosus and adherent tissues on Day 1.
Following induction of the wound the polypeptides IK34720 and IK236770 were topically administered to the site of the wound at a dosage of 10 μg per animal. […] An additional group which comprised the administration of Phosphate buffered Saline (PBS) at pH 7.4 was used as a negative control.
The wound healing was analysed on Days 5, 7, 9 and 11 by tracing the periphery of the wound onto clear plastic sheets with the wound area calculated by an Image analyzer ProPlus (Media Cybernetics, Version 4.5.0.29. The percentage closure of the wound (%) was calculated. Percentage closure of the wound was determined on 5, 7, 9 and 11. ANOVA and Dunnett's test were applied to test significant significance between the treated groups (peptide and positive control groups) and the negative control group at each time point of measurement. Differences were considered statistically significant at P<0.05, and are indicated by *.

MMP1 = MMP1 immunohistochemical staining in UV-irradiated human skin explants; assay type: cell-based
Protocol: Human skin (2×human explant tissues) removed at elective surgery was cleaned, dissected and cut into pieces of approx. 5 mm×5 mm. Each piece was placed in a well of a 96 well plate, with individual plates prepared to assess the effects 3 hrs post treatment. Skin was subjected to UV-radiation from solar-simulated UV source for 1.5 h (UVR), or non-irradiation (SHAM), and treated immediately after with a vehicle control, Calcitriol (1 nM) or the polypeptide IK34720 (SEQ ID NO: 3) at concentrations of 50 μM, 250 μM or 500 μM. In FIG. 17, IK50, IK250 and IK500 as μM concentrations refers to 15 μg, 75 μg and 150 μg of IK34720 per 120 μL culture medium/explant, respectively.
Samples harvested at 3 hrs were fixed, sectioned, immunohistochemically stained for MMP1 and quantified for MMP1 expression, by expressing epidermal area stained for MMP1 as a function of total epidermal area examined.

Skh: hr1 hairless mice = assay: CPD (thymine dimer) immunohistochemistry in UV-irradiated mouse skin; assay type: in vivo; conditions: topical immediately after UVR; IK34720 20, 100 or 200 μg, Calcitriol 11.4 pmol/cm2; 3 hours post-UVR; vs vehicle
Protocol: Female Skh: hr1 hairless mice were exposed to solar simulated UV-irradiation as described above at Example 4. Immediately after irradiation mice were treated topically on the dorsal surface also as described in Example 4. Subsequently, skin was fixed at 3 hours post-UVR, and subjected to immuno-histochemical staining using the antibody directed against thymine dimers (CPD) described above at 10 μg/ml. […] In FIG. 9, dark staining in nuclei indicates the presence of thymine dimers (CPD), and the % area stained is presented. Immunohistology was quantified as per Example 4.

dermal fibroblasts = assay: TBARS lipid peroxidation assay, UV-irradiated dermal fibroblasts; assay type: cell-based; conditions: IK-3 at the highest concentration (5 μM); 1,25D
Protocol: The ability of the polypeptide RSKAKNPLYRRRRRRRRR to alter UV-induced oxidative damage of cell-derived lipids was examined using the TBARS thiobarbituric acid-reactive substances (TBARS) lipid peroxidation assay.
After irradiation or sham-irradiation of dermal fibroblasts, supernatants (900 μL) were collected. In brief, 90 μL of butylated hydroxytoluene (2% w/w in ethanol) was added and samples kept frozen (−20° C.) until the TBARS assay. Petri dishes were washed twice with 1 mL of HBSS, cells scraped in 600 μL of water and 60 μL of 0.5% aqueous Triton X100 added to this solution, for protein determination carried out by the Lowry method (Lowry O H et al, J. Biol. Chem., 1951, 193:265-275). TBARS were fluorometrically assayed as described (Morlière P et al, Biochim. Biophys. Acta, 1991, 1084:261-268). Briefly, thawing samples were heated in the presence of thiobarbituric acid in acidic conditions, and TBARS extracted with 1-butanol and fluorometrically quantified (λexc=515 nm and Aem=550 nm). Tetraethoxypropane, which quantitatively yields the malondialdehyde-thiobarbituric acid adduct in the assay conditions, was used for calibration. TBARS values, expressed in malondialdehyde (MDA) equivalents, were normalized to the cell protein for each Petri dish. Each TBARS determination was performed in triplicate (e.g., with three Petri dishes per data point).

Smad4 = Smad4 expression in UV treated cells (data not shown); assay type: cell-based
[2] = molecular target: T1, Human rheumatoid synovial fibroblast MMP-1 (Homo sapiens, UniProt P03956); assay: MMP-1 activity, fluorogenic substrate assay; assay type: biochemical; conditions: 5, 10, 800 and 1000 μM; 8 nM activated enzyme
T1 construct: endogenous in cells; host or cells: human rheumatoid synovial fibroblasts
T1 sequence (P03956 100-469): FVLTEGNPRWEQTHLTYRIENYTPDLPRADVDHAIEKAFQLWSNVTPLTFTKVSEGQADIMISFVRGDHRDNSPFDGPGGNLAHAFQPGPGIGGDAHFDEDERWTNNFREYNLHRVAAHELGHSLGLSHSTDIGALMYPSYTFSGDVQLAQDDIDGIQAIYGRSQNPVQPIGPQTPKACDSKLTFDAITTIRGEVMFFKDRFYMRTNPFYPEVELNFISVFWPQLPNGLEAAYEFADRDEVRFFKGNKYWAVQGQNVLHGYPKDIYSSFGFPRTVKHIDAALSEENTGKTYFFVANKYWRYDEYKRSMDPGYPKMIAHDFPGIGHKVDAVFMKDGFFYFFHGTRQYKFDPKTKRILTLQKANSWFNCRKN
Protocol: Human rheumatoid synovial fibroblast MMP-1 proenzyme, activated with APMA for 60 minutes at 37° C., was used as an active enzyme. The polypeptide IK34720 (SEQ ID NO: 3) at a concentration of 5 μM. 10 μM 800 μM and 1000 μM was pre-incubated with 8 nM activated enzyme in modified MOPS buffer pH 7.2 for 60 minutes at 37° C. The reaction was initiated by addition of […] Mca-Pro-Leu-Gly-Leu-Dap-Ala-Arg followed by a 2 hour incubation period. Determination of the amount of Mca-Pro-Leu-Gly formed was read spectrofluorimetrically at 340 nm/400 nm.

For “RSKAKNPLYRRRRRRRRR (not fully specified (some residues)) [IK34720]”, the wound closure percentage [1] was “statistically significant increase”, the “percentage of MMP1 positive cells” value (MMP1; 500 μM, 3 hrs post irradiation) was “statistically significantly reduced” and the “cells staining for MMP-1” value (MMP1; 3 hrs post irradiation/treatment, Calcitriol 1 nM, IK34720 50, 250 or 500 μM) was “fewer stained cells”. The “CPD formation in the skin (% area stained)” value (Skh: hr1 hairless mice) was “inhibits CPD formation”, the “significant difference in TRS (TBA reactive substances) between Sham and UV irradiation” value (dermal fibroblasts) was “not seen” and the “Smad4 expression in UV treated cells” value (Smad4) was “restored Smad4 expression”. For the same sequence, the MMP-1 activity [2] was “inhibits MMP-1 activation in a dose dependent manner”.

Source: patent US20250262139A1, “POLYPEPTIDES AND METHODS FOR IMPROVING SKIN CONDITIONS” (INTERK PEPTIDE THERAPEUTICS LIMITED, priority 2020, published 2025)
